Literature values, collected in US10653634B1, “Polymeric nanoparticulate formulation to enhance the oral bioavailability of dapoxetine” (King Abdulaziz University, priority 2019, dated 2020).
≈ marks a conversion by molar mass, not a printed value.

What was measured:
[1] = not given; remark: listed apart in the source

CN(C)[C@@H](CCOc1cccc2ccccc12)c1ccccc1 [DPX, (1S)—N,N-dimethyl-3-naphthalen-1-yloxy-1-phenylpropan-1-amine]
pKa: 8.6
aqueous solubility (protonated DPX): 68 mg/mL (≈ 223 mM)
bioavailability after oral administration (mean) [1]: 42%
bioavailability after oral administration (variability) [1]: 15-76%
time to peak plasma concentration after oral administration [1]: 60 to 80 min
